Measurements reported in patent US20230069722A1, “TUBULYSINS AND PROTEIN-TUBULYSIN CONJUGATES” (priority 2020, published 2023).
Like-named read-outs stand apart in the source and are kept apart here.

What was measured:
[1] = test system: HCT15 cells; test: MDR cell based killing assay, HCT15 cells with or without Verapamil (CellTiter-Glo); set-up: species or system human; conditions: for IC50: Homo sapiens; for HCT-15 with verapamil Ratio to Xa = H / HCT-15 Ratio to Xa = H: IC50 ratio to parent payload with Xa = H; for HCT-15 Ratio to Xa = H: without verapamil
Description: To test the ability of the disclosed tubulysin payloads or prodrug payloads to kill human cell lines, an in vitro cytotoxicity assay can be performed. In vitro cytotoxicity of the disclosed payloads, as well as reference compounds, are evaluated using the CellTiter-Glo Assay Kit (Promega, Cat # G7573), in which the quantity of ATP present is used to determine the number of viable cells in culture. For the assay, C4-2, HEK293, or T47D cells are seeded at 4000 cells/well on Nunclon white 96-well plates in complete growth medium (DME high glucose:Ham's F12 at 4:1, 10% FBS, 100 units/ml Penicillin, 100 ug/ml streptomycin, 53 ug/ml glutatmine, 10 ug/ml insulin, 220 ng/ml biotin, 12.5 pg/ml T3, 12.5 ug/ml Adenine, 4 ug/ml transferrin for C42 cells; DME high glucose, 10% FBS, 100 units/ml Penicillin, 100 ug/ml streptomycin, 53 ug/ml glutatmine for HEK293; RPMI, 10% FBS, 100 units/ml Penicillin, 100 ug/ml streptomycin, 53 ug/ml glutatmine, 10 ug/ml insulin, 10 mM HEPEs, 200 nM Sodium Pyruvate for T47D cells) and grown overnight at 37° C. in 5% CO2. For cell viability curves, 1:3 serially diluted payloads are added to the cells at final concentrations ranging from 100 nM to 15 pM, including a no treatment control group, and are then incubated for 5 days. After the 5-day incubation, cells are incubated at room temperature with 100 μL of CellTiter-Glo reagents for 10 minutes. Relative luminescence units (RLU) can be determined on a Victor plate reader (PerkinElmer). The IC50 values are determined from a four-parameter logistic equation over a 10-point response curve (GraphPad Prism). All IC50 values are expressed in molar (M) concentration. The percent cell killing (% kill) at the maximum concentration tested is estimated from the following formula (100−% viable cells). Averages±standard deviation (SD) can be included where replicate experiments are performed.
In vitro cytotoxicity of the disclosed payloads as well as reference compounds are evaluated similarly as described above except using 1000 HCT15 cells, a colorectal carcinoma cell line, in growth medium (RPMI, 10% FBS, 100 units/ml Penicillin, 100 ug/ml streptomycin, 53 ug/ml glutatmine) with or without 5 ug/mL of Verapamil.
For each payload or prodrug payload, the HCT-15 IC50 in the absence of Verapamil is divided by the HCT-15 IC50 in the presence of Verapamil (HCT-15 IC50/HCT-15+Verapamil IC50). […] The reference compound, (MMAE), can have a ratio of 23.7. […]

[2] = test system: SK-BR-3 human breast adenocarcinoma cell line; test: SK-BR-3 anti-proliferation / cell kill assay (CellTiter-Glo, 144 hrs); format: cell-based
Description: Anti-proliferation assays were performed using a SK-BR-3 human breast adenocarcinoma (pleural effusion) cell line. The cells were grown in McCoy's 5a Medium supplemented with 10% FBS, penicillin/streptomycin and L-glutamine. Cells were seeded 1000/well in 96-well plate in 80ul complete growth media one day prior to adding ADCs and incubated at 37° C. 5% CO2 overnight.
The ADCs were 1:3 serially diluted 10 points in assay media (Opti-MEM+0.1% BSA). The concentrations of the testing ADCs cover the range of 1 nM to ˜1000 nM and also starting from different concentrations based on the cell killing potency in order to see EC50 covers, leaving the last well (10th) as blank (no ADC or compound). ADCs were first 1:3 serially diluted 10 points in DMSO starting from […] (the starting concentration of each ADC is different according to the EC50s), leaving the last well as blank (containing only DMSO). 10 μl DMSO-diluted compound was transferred to 990 μl assay media (Opti-MEM+0.1% BSA) in a 96-well deep well dilution plate. 20 μl assay media-diluted ADC was added to cells. Cells were incubated at 37° C. […] for 6 days (144 hrs). Plates were developed by adding 100 μl CTG reagent/well to the cells CellTiter-Glo®, from Promega, Cat. No G7573), shaken at room temperature for 10 min, sealed with white adhesive bottom seal and luminescence was read with Envision. Cell kill %=[1−(T144sample−T144blank)/(T144DMSO−T144blank)]×100%, wherein T144 is the data at 144 hours.
The table below provides the drug-antibody ratios (DARs) for conjugates 1-37, along with the EC50 results from the SKBR assays for the same conjugates. The following linker-payloads (from Table P1) were prepared as described in PCT/US2019/068185, the content of which is hereby incorporated by reference in its entirety: LP4-Ve, LP4-Ve, LP25-Ve, LP25-Ve, LP26-Ve, LP26-Ve, LP17-Ve, LP13-Ve, LP19-Ve, LP2-Ve, LP21-Ve, LP6-Vb, LP24-Vb, LP23-Vb, and LP15-VIh.

[3] = HCT-15, read-out: HCT-15 with verapamil IC50

Structure (SMILES) | IC50 ([1]; HCT-15, read-out: HCT-15 IC50) | IC50 [1, 3] | HCT-15 with verapamil Ratio to Xa = H [1] | HCT-15 Ratio to Xa = H [1] | IC50 ([2]; Homo sapiens, SK-BR-3, read-out: SK-BR-3 IC50) | SK-BR-3 Ratio to Xa = H ([2]; IC50 ratio to parent payload with Xa = H)
CCCCCCN(C(=O)[C@@H](NC(=O)[C@H]1CCCCN1C)[C@@H](C)CC)[C@H](C[C@@H](OCC)c1nc(C(=O)N[C@@H](Cc2ccc(NC(=O)CN)cc2)CC(C)(C)C(=O)O)cs1)C(C)C [Compound P31, (4S)-5-[4-(2-aminoacetamido)phenyl]-4-({2-[(1R,3R)-1-ethoxy-3-[(2S,3S)—N-hexyl-3-methyl-2-{[(2R)-1-methylpiperidin-2-yl]formamido}pentanamido]-4-methylpentyl]-1,3-thiazol-4-yl}formamido)-2,2-dimethylpentanoic Acid] | 0.81 nM | 0.29 nM | 4.3x | 9.7x | 0.07 nM | 2.4x
C#CCCCON(C(=O)[C@@H](NC(=O)[C@H]1CCCCN1C)[C@@H](C)CC)[C@H](C[C@@H](OC(C)=O)c1nc(C(=O)NS(=O)(=O)Cc2ccc(N)cc2)cs1)C(C)C [Compound P49, (1R,3R)-1-(4-{[(4-aminophenyl)methanesulfonyl]carbamoyl}-1,3-thiazol-2-yl)-4-methyl-3-[(2S,3S)-3-methyl-2-{[(2R)-1-methylpiperidin-2-yl]formamido}-N-(pent-4-yn-1-yloxy)pentanamido]pentyl Acetate] | 163 nM | – | – | – | – | –
CCCCCCN(C(=O)[C@@H](NC(=O)[C@H]1CCCCN1)[C@@H](C)CC)[C@H](C[C@@H](OC(C)=O)c1nc(C(=O)N[C@@H](Cc2ccc(N)cc2)CC(C)(C)C(=O)O)cs1)C(C)C [Compound P18, (4S)-4-({2-[(1R,3R)-1-(acetyloxy)-3-[(2S,3S)—N-hexyl-3-methyl-2-[(2R)-piperidin-2-ylformamido]pentanamido]-4-methylpentyl]-1,3-thiazol-4-yl}formamido)-5-(4-aminophenyl)-2,2-dimethylpentanoic Acid] | 0.98 nM | 0.05 nM | – | – | – | –
CCCCCCN(C(=O)[C@@H](NC(=O)[C@H]1CCCCN1C)[C@@H](C)CC)[C@H](C[C@@H](OC(C)=O)c1nc(C(=O)NS(=O)(=O)c2ccc(CN)cc2)cs1)C(C)C [Compound P42, (1R,3R)-1-(4-{[4-(aminomethyl)benzenesulfonyl]carbamoyl}-1,3-thiazol-2-yl)-3-[(2S,3S)—N-hexyl-3-methyl-2-{[(2R)-1-methylpiperidin-2-yl]formamido}pentanamido]-4-methylpentyl Acetate] | > 100 nM | 48.4 nM | – | – | – | –
CCCCCCN(C(=O)[C@@H](NC(=O)[C@H]1C[C@H](C)CCN1C)[C@@H](C)CC)[C@H](C[C@@H](OC(C)=O)c1nc(C(=O)N[C@@H](Cc2ccc(N)c(F)c2)CC(C)(C)C(=O)O)cs1)C(C)C [Compound P13, (4S)-4-({2-[(1R,3R)-1-(acetyloxy)-3-[(2S,3S)-2-{[(2R,4R)-1,4-dimethylpiperidin-2-yl]formamido}-N-hexyl-3-methylpentanamido]-4-methylpentyl]-1,3-thiazol-4-yl}formamido)-5-(4-amino-3-fluorophenyl)-2,2-dimethylpentanoic Acid] | 0.15 nM | 0.13 nM | – | – | – | –
CCCCCCN(C(=O)[C@@H](NC(=O)[C@H]1C[C@H](C)CCN1)[C@@H](C)CC)[C@H](C[C@@H](OCC)c1nc(C(=O)N[C@@H](Cc2ccc(N)cc2)CC(C)(C)C(=O)O)cs1)C(C)C [Compound P21, (4S)-5-(4-aminophenyl)-4-({2-[(1R,3R)-1-ethoxy-3-[(2S,3S)—N-hexyl-3-methyl-2-{[(2R,4R)-4-methylpiperidin-2-yl]formamido}pentanamido]-4-methylpentyl]-1,3-thiazol-4-yl}formamido)-2,2-dimethylpentanoic Acid] | 11.1 nM | 1.47 nM | – | – | – | –
CCCCCCN(C(=O)[C@@H](NC(=O)[C@H]1CCCCN1C)[C@@H](C)CC)[C@H](C[C@@H](OC(C)=O)c1nc(C(=O)N[C@@H](Cc2ccc(NC(=O)CO)cc2)CC(C)(C)C(=O)O)cs1)C(C)C [Compound P29, (4S)-4-({2-[(1R,3R)-1-(acetyloxy)-3-[(2S,3S)—N-hexyl-3-methyl-2-{[(2R)-1-methylpiperidin-2-yl]formamido}pentanamido]-4-methylpentyl]-1,3-thiazol-4-yl}formamido)-5-[4-(2-hydroxyacetamido)phenyl]-2,2-dimethylpentanoic Acid] | 4.68 nM | 0.67 nM | 35x | 104x | – | –
CCCCCCN(C(=O)[C@@H](NC(=O)[C@H]1CCCCN1)[C@@H](C)CC)[C@H](C[C@@H](OC(C)=O)c1nc(C(=O)N[C@@H](Cc2ccc(N)c(F)c2)CC(C)(C)C(=O)O)cs1)C(C)C [Compound P12, (4S)-4-({2-[(1R,3R)-1-(acetyloxy)-3-[(2S,3S)—N-hexyl-3-methyl-2-[(2R)-piperidin-2-ylformamido]pentanamido]-4-methylpentyl]-1,3-thiazol-4-yl}formamido)-5-(4-amino-3-fluorophenyl)-2,2-dimethylpentanoic Acid] | 0.34 nM | 0.03 nM | – | – | – | –
C#CCCCON(C(=O)[C@@H](NC(=O)[C@H]1CCCCN1C)[C@@H](C)CC)[C@H](C[C@@H](OC(C)=O)c1nc(C(=O)N[C@@H](Cc2ccc(NC(=O)CO)cc2)CC(C)(C)C(=O)O)cs1)C(C)C [Compound P37, (4S)-4-({2-[(1R,3R)-1-(acetyloxy)-4-methyl-3-[(2S,3S)-3-methyl-2-{[(2R)-1-methylpiperidin-2-yl]formamido}-N-(pent-4-yn-1-yloxy)pentanamido]pentyl]-1,3-thiazol-4-yl}formamido)-5-[4-(2-hydroxyacetamido)phenyl]-2,2-dimethylpentanoic Acid] | 102 nM | – | – | – | – | –
C#CCCCON(C(=O)[C@@H](NC(=O)[C@H]1CCCCN1C)[C@@H](C)CC)[C@H](C[C@@H](O)c1nc(C(=O)N[C@@H](Cc2ccc(N)cc2)CC(C)(C)C(=O)O)cs1)C(C)C [Compound P33, (4S)-5-(4-aminophenyl)-4-({2-[(1R,3R)-1-hydroxy-4-methyl-3-[(2S,3S)-3-methyl-2-{[(2R)-1-methylpiperidin-2-yl]formamido}-N-(pent-4-yn-1-yloxy)pentanamido]pentyl]-1,3-thiazol-4-yl}formamido)-2,2-dimethylpentanoic Acid] | 81.7 nM | 28.1 nM | – | – | – | –
CCCCCCN(C(=O)[C@@H](NC(=O)[C@H]1CCCCN1)[C@@H](C)CC)[C@H](C[C@@H](OCC)c1nc(C(=O)N[C@@H](Cc2ccc(N)c(F)c2)CC(C)(C)C(=O)O)cs1)C(C)C [Compound P16, (4S)-5-(4-amino-3-fluorophenyl)-4-({2-[(1R,3R)-1-ethoxy-3-[(2S,3S)—N-hexyl-3-methyl-2-[(2R)-piperidin-2-ylformamido]pentanamido]-4-methylpentyl]-1,3-thiazol-4-yl}formamido)-2,2-dimethylpentanoic Acid] | 1.96 nM | 0.18 nM | – | – | – | –
